Measured values reported in PubChem BioAssay (NCI).
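The compound was tested at five concentrations on cells cultured in 96-well plates, with a 48-hour exposure period. The concentration for full growth arrest is given as TGI.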

Tests used:
Assay in all cases: inhibition of tumour cell growth, NCI panel, 48 h
[1] = tested on: SW-620 colon
[2] = tested on: DU-145 prostate
[3] = tested on: SK-MEL-28 melanoma
[4] = tested on: NCI-H522 lung
[5] = tested on: HCT-116 colon
[6] = tested on: HOP-62 NSCLC
[7] = tested on: SNB-75 CNS
[8] = tested on: MDA-N
[9] = tested on: UACC-257 melanoma
[10] = tested on: OVCAR-4 ovarian
[11] = tested on: NCI-H23 lung
[12] = tested on: MCF7 breast
[13] = tested on: K-562 leukemia
[14] = tested on: HL-60(TB) leukemia
[15] = tested on: SK-MEL-2 melanoma
[16] = tested on: KM12 colon
[17] = tested on: NCI/ADR-RES ovarian
[18] = tested on: A549 NSCLC
[19] = tested on: MDA-MB-435
[20] = tested on: NCI-H460 lung
[21] = tested on: SK-OV-3 ovarian
[22] = tested on: SF-539 CNS
[23] = tested on: SN12C renal
[24] = tested on: RPMI-8226 leukemia
[25] = tested on: OVCAR-8 ovarian
[26] = tested on: UO-31 renal
[27] = tested on: SF-295 CNS
[28] = tested on: ACHN renal
[29] = tested on: TK-10 renal
[30] = tested on: SK-MEL-5 melanoma
[31] = tested on: IGROV1 ovarian
[32] = tested on: COLO 205 colon
[33] = tested on: HS 578T breast
[34] = tested on: 786-0 renal
[35] = tested on: MALME-3M melanoma
[36] = tested on: SF-268 CNS
[37] = tested on: HCC-2998 colon
[38] = tested on: CAKI-1 renal
[39] = tested on: NCI-H226 lung
[40] = tested on: OVCAR-3 ovarian
[41] = tested on: U251 CNS
[42] = tested on: CCRF-CEM leukemia
[43] = tested on: HOP-92 NSCLC
[44] = tested on: LOX IMVI melanoma
[45] = tested on: UACC-62 melanoma
[46] = tested on: OVCAR-5 ovarian
[47] = tested on: A498 renal
[48] = tested on: HT29 colon
[49] = tested on: BT-549 breast
[50] = tested on: PC-3 prostate
[51] = tested on: MDA-MB-231 breast
[52] = tested on: HCT-15 colon
[53] = tested on: M14 melanoma
[54] = tested on: EKVX NSCLC
[55] = tested on: RXF 393 renal
[56] = tested on: SNB-19 CNS

SMILES: O=C(OCc1ccccc1)c1ccc(NCc2cc(O)ccc2O)cc1
- TGI [1]: 3.93 µM
- TGI [2]: 13.5 µM
- TGI [3]: 3 µM
- TGI [4]: 883 nM
- TGI [5]: 3.02 µM
- TGI [6]: 20.1 µM
- TGI [7]: 3.39 µM
- TGI [8]: 4.6 µM
- TGI [9]: 3.4 µM
- TGI [10]: 2990 nM
- TGI [11]: 3.73 µM
- TGI [12]: 7.81 µM
- TGI [13]: 6.98 µM
- TGI [14]: 2560 nM
- TGI [15]: 5.23 µM
- TGI [16]: 3.62 µM
- TGI [17]: 4.18 µM
- TGI [18]: 20.5 µM
- TGI [19]: 3.9 µM
- TGI [20]: 18.7 µM
- TGI [21]: 11.2 µM
- TGI [22]: 2270 nM
- TGI [23]: 2780 nM
- TGI [24]: > 100 µM
- TGI [25]: 2750 nM
- TGI [26]: 2610 nM
- TGI [27]: 17.1 µM
- TGI [28]: 2770 nM
- TGI [29]: 3.87 µM
- TGI [30]: 2870 nM
- TGI [31]: 2490 nM
- TGI [32]: 2880 nM
- TGI [33]: 5.43 µM
- TGI [34]: 2670 nM
- TGI [35]: 2980 nM
- TGI [36]: 2990 nM
- TGI [37]: 6.12 µM
- TGI [38]: 1790 nM
- TGI [39]: 7.69 µM
- TGI [40]: 2380 nM
- TGI [41]: 2640 nM
- TGI [42]: 2800 nM
- TGI [43]: 2230 nM
- TGI [44]: 3.14 µM
- TGI [45]: 3.15 µM
- TGI [46]: 13.9 µM
- TGI [47]: 3.21 µM
- TGI [48]: 20.3 µM
- TGI [49]: 2190 nM
- TGI [50]: 2730 nM
- TGI [51]: 6.08 µM
- TGI [52]: 2420 nM
- TGI [53]: 4.02 µM
- TGI [54]: 3.48 µM
- TGI [55]: 2400 nM
- TGI [56]: 10.8 µM
